pEC50: −log10 of the molar value.
Experiments:
γ-secretase = γ-secretase (Homo sapiens, UniProt P49768); assay: GSM activity of compounds that bind Aβ or Aβ amyloid (cell-based or cell-free γ-secretase assays, FIG. 12); conditions: two doses (10 and 100 μM)
Method: A literature search was performed to identify compounds reported to bind to the Aβ peptide directly or amyloid. These candidates were initially tested in cell-based assays or cell-free in vitro γ-secretase assays at two doses (10 and 100 μM).
Finally, X-34 was tested for its ability to modulate Aβ42 amounts in an APP transgenic mouse (Tg2576).

APP wild-type cells = assay: Aβ modulation in APP wild-type cells; assay type: cell-based; conditions: APP wild-type cells; read-out: EC50, lowering of Aβ42
Method: (§1) (A) and (B) The sequences of wildtype (WT; A) APP and the mutated substrate (B) containing the homologous region (italic, underlined) of the NOTCH transmembrane domain (TMD) in APP where GSMs are hypothesized to bind. […] Bottom row, FT-1 ([…]) raised Aβ42 200% in APP wild-type cells (A); however, in APP-NOTCH TMD cells (B), FT-1 caused minimal changes in the Aβ42 (95%) or Aβ40 (90%) signal. Data are presented as amyloid-β percentage of control±s.e.m., n=3.
FIG. 19. Substitution of human Notch sequence in the APP transmembrane domain (TMD) changes sensitivity to modulation. (A) Site-directed mutagenesis was used to exchange the analogous region of the human Notch TMD (bold and underlined) for a section (bold and underlined) of wild-type APP (APPwt) we have shown to be labeled by GSMs. The new substrate (APP-Notch TMD) is cleaved by γ-secretase primarily after valine and alanine residues corresponding to 40 and 42 in APPwt (arrows). […] The beginning (1) N-terminal amino acid (AA) to the ending C-terminal AA is shown above each peak, with the molecular weight (m/z) below. 1-40 and 1-42 are detected as the two major species in APP-Notch TMD conditioned media. It should be noted that the mutagenesis strategy to create APPNotch TMD led to a single AA deletion relative to APPwt. […] Both cell lines were treated (6 hours) with L-685,458 (10 μM), which is hypothesized to target the active site aspartate residues, media was collected, and analyzed for changes in Aβ levels. […]
To test the hypothesis that mutation of the GSM binding site in APP should alter sensitivity to GSMs, a portion of the GSM binding site in APP was exchanged with the analogous region of human NOTCH (FIGS. 18A and 18B; FIG. 19). […] Although the molecular weight and abundance of each chimeric peptide differed from amyloid-β peptides from APP, the main species produced from the APP-NOTCH TMD construct had identical C-termini to Ab1-40 and Ab1-42, and could be quantified by enzyme-linked immunosorbent assays (ELISAs; FIG. 19). […]

APP-NOTCH TMD cells = assay: Aβ modulation in APP-NOTCH TMD cells; assay type: cell-based, human; conditions: APP-NOTCH TMD line
Method: as §1
FIG. 19. Substitution of human Notch sequence in the APP transmembrane domain (TMD) changes sensitivity to modulation. (A) Site-directed mutagenesis was used to exchange the analogous region of the human Notch TMD (bold and underlined) for a section (bold and underlined) of wild-type APP (APPwt) we have shown to be labeled by GSMs. The new substrate (APP-Notch TMD) is cleaved by γ-secretase primarily after valine and alanine residues corresponding to 40 and 42 in APPwt (arrows). […] The beginning (1) N-terminal amino acid (AA) to the ending C-terminal AA is shown above each peak, with the molecular weight (m/z) below. 1-40 and 1-42 are detected as the two major species in APP-Notch TMD conditioned media. It should be noted that the mutagenesis strategy to create APPNotch TMD led to a single AA deletion relative to APPwt. The correct change in molecular weight caused by the introduced mutations were confirmed by the mass spectrum. For simplicity the peptides are referenced by their C-terminal residues relative to Aβ (40, 42, etc). Representative mass spectra are shown from multiple IP reactions (3) and duplicate spots. […] Both cell lines were treated (6 hours) with L-685,458 (10 μM), which is hypothesized to target the active site aspartate residues, media was collected, and analyzed for changes in Aβ levels. The 40 and 42 Aβ reactive species from both cell lines were inhibited by L-685,458 with equal sensitivity (no significant difference; 40 p>0.5; 42 p>0.4; t test; n=3).
To test the hypothesis that mutation of the GSM binding site in APP should alter sensitivity to GSMs, a portion of the GSM binding site in APP was exchanged with the analogous region of human NOTCH (FIGS. 18A and 18B; FIG. 19). The chimeric construct was used because the NOTCH transmembrane domain (TMD) appears resistant to GSM effects. The APP NOTCH TMD construct produced a spectrum of chimeric amyloid-β species in conditioned cell media (FIG. 19). Although the molecular weight and abundance of each chimeric peptide differed from amyloid-β peptides from APP, the main species produced from the APP-NOTCH TMD construct had identical C-termini to Ab1-40 and Ab1-42, and could be quantified by enzyme-linked immunosorbent assays (ELISAs; FIG. 19). The relative sensitivity to GSMs of APP-NOTCH TMD versus APP was assayed in stably transfected cells. […]

APP(C100)-Flag = molecular target: T1, APP(C100)-Flag (Homo sapiens, UniProt P05067); assay: Photoaffinity labelling of APP(C100)-Flag and competition; assay type: binding
T1 construct: APP(C100)-Flag, comprising the 99 C-terminal residues of APP plus a methionine at the N-terminus; added methionine (N)
Method: FIG. 1. […] The top panel is for anti-biotin staining; the middle panel is for anti-FLAG staining; and the bottom panel is an overlay of anti-biotin (red and anti-Flag green, LiCor Odyssey imaging). (E) Same samples as in D, but analyzed using an ELISA. Following crosslinking, C100Flag and N100 Flag were captured using anti-FLAG plate, and biotin incorporation was measured using streptavidin-HRP. […] Fen-B (50 μM) was crosslinked to Aβ (10 μM). Biotin labeling was measured following capture with an anti-Aβ1-16 antibody and detection with streptavidin-HRP.
Photoaffinity labelling. All experiments used the following general protocol. Samples (recombinant or synthetic peptides, cell lysates and membrane preparations) were exposed in borosilicate test tubes to ultraviolet light (350 nm) in a Rayonet Photoreactor R100 (RPR-3500 lamps, Southern New England Ultra Violet Company) in a cold room (4° C.) for 30 minutes or as otherwise noted. Crosslinked samples were analyzed by ELISA for biotin incorporation, or analyzed directly by SDS-PAGE (Criterion-XT, Bio-Rad), or after precipitation with streptavidin ultralink plus beads (Pierce). After immunblotting, proteins were detected using chemiluminesence (ECL Plus, GEHealthcare) or near-infrared fluorescence (LiCor Odyssey). Full-length APP and APP CTFs (CTF83, CTF99) were detected with CT20, a rabbit polyclonal antibody against the C-terminus of APP. Biotin was detected with an affinity-purified rabbit polyclonal antibody (Bethyl). Cell-based screens for amyloid-β modulation. Human H4 neuroglioma cells (American Type Culture Collection, ATCC) expressing wild-type APP695 protein or CTF105 fused to secreted alkaline phosphatase which is efficiently processed to APP CTFs (CTF83, CTF99) and produce high levels of amyloid-β, were used for the cell-based screens as previously described. Cells were incubated for 5-6 hours in the presence of the various compounds in Opti-Mem culture medium containing 1% fetal bovine serum. Compounds were dissolved in dimethylsulphoxide (DMSO; 0.5% final concentration) and diluted 200-fold. Media was analyzed for various amyloid-β species (40, 42 and total) using ELISAs as described herein. The EC50 values for changes in amyloid-β species were calculated by fitting sigmoid dose-response curves using nonlinear regression in Prism (GraphPad) and are shown as values±s.e.m. Statistical analysis. Data are presented as either percentage control or mean±s.e.m. Results were analyzed using Prism (Graph Pad) with t-tests or one-way analysis of variance analyses (ANOVAs) with Dunnett's post-hoc correction for comparison of multiple samples to a control. Statistical significance is shown as P,0.05 (one asterisk), P,0.01 (two asterisks) or P,0.001 (three asterisks).
The ability of a purified, recombinant Flag-tagged γ-secretase substrate derived from APP (APP(C100)-Flag, comprising the 99 C-terminal residues of APP plus a methionine at the N-terminus) to be labeled by Fen-B and Flurbi-BpB was tested.

T1 sequence (P05067 672-770 limits assumed): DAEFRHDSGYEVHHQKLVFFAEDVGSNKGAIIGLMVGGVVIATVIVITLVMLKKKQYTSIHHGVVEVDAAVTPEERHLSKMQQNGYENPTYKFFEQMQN

GSM activity (γ-secretase): Aβ42-lowering
pEC50 (APP wild-type cells): 5.23
competition for binding of APP(C100)-Flag by Fen-B and Flurbi-BpB (APP(C100)-Flag): competed
Structure (SMILES): O=C(O)c1cc(C=Cc2ccc(C=Cc3ccc(O)c(C(=O)O)c3)cc2)ccc1O [X-34, 1,4-bis(3-carboxy-4-hydroxyphenylethenyl)-benzene]
Aβ40 or Aβ42 concentrations (APP-NOTCH TMD cells): did not change either Aβ40 or Aβ42 concentrations

From patent publication US20110021471A1, “REDUCING Abeta42 LEVELS AND Abeta AGGREGATION” (priority 2007, published 2011)
